Laboratory results published in publication PMC4687966 (Journal of medicinal chemistry, 2015).

Legend:
Mtb BioA [1] = target: T1, Mtb BioA (Mycobacterium tuberculosis, UniProt P9WQ81); assay type: binding; conditions: for KA / ΔH / −TΔS / ΔG: 25 °C; for KA / ΔH: 100 µM BioA, pH 7.5; for −TΔS: from ΔG = ΔH − TΔS; for ΔG: ΔG = −RT ln KA; for LE (ligand efficiency): LE = (−ΔG)/N, N = number of non-hydrogen atoms
Mtb BioA [2] = target: T1, Mtb BioA; experiment: Differential scanning fluorimetry; assay type: binding; conditions: DSF; holo BioA Tm 85 °C

T1 sequence (P9WQ81 whole entry): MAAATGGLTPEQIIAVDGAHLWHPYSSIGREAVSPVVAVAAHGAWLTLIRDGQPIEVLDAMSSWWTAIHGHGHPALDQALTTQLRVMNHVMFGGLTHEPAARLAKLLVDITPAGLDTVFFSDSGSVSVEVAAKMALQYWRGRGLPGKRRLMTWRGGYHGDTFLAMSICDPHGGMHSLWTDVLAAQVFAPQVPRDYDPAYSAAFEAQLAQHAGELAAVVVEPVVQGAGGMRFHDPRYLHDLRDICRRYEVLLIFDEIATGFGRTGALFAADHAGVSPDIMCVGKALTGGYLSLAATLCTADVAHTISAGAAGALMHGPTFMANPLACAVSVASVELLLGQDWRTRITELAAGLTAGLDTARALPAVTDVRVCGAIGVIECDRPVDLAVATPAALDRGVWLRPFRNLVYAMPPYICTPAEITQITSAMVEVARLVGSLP

In the case of `NC(=O)c1ccc(-c2ccccn2)s1` [F2], the KA (Mtb BioA [1]; ITC) was 14.6 ± 1.3 10^4 M^−1, the ΔH (Mtb BioA [1]; ITC) was -5.4 ± 0.0 kcal/mol and the “−TΔS” value (Mtb BioA [1]; ITC) was -1.6 ± 0.1 kcal/mol. The ΔG (Mtb BioA [1]; ITC) was -7.0 ± 0.1 kcal/mol and the “LE (ligand efficiency)” value (Mtb BioA [1]) was 0.50.
In the case of `NC(=O)c1ccc(-n2ccnc2)cc1` [F3], the KA (Mtb BioA [1]; ITC) was 6.8 ± 1.3 10^4 M^−1, the ΔH (Mtb BioA [1]; ITC) was -6.3 ± 0.2 kcal/mol and the “−TΔS” value (Mtb BioA [1]; ITC) was -0.2 ± 0.1 kcal/mol. For the same compound, the ΔG (Mtb BioA [1]; ITC) was -6.6 ± 0.1 kcal/mol and the “LE (ligand efficiency)” value (Mtb BioA [1]) was 0.47.
For `NCc1ccc(Cn2cc(Cl)cn2)cc1` [F5.1], the “Tm of BioA with compound” value (Mtb BioA [2]) was 73 °C, the “Improvement in KD over the parent fragment F5” value (Mtb BioA [1]; ITC) was 1.7 fold and the KA (Mtb BioA [1]; ITC) was 14.9 ± 1.7 10^4 M^−1. For the same compound, the ΔH (Mtb BioA [1]; ITC) was -11.3 ± 0.5 kcal/mol, the “−TΔS” value (Mtb BioA [1]; ITC) was 4.3 ± 0.5 kcal/mol and the ΔG (Mtb BioA [1]; ITC) was -7.0 ± 0.1 kcal/mol. For the same compound, the “LE (ligand efficiency)” value (Mtb BioA [1]) was 0.47.
In the case of `CNCc1ccc(Cn2cccn2)cc1` [F5], the “ΔH (enthalpic stabilization)” value (Mtb BioA [1]; ITC) was -12.9 kcal/mol, the “−TΔS (binding entropy)” value (Mtb BioA [1]; ITC) was “+6.2 kcal/mol” and the KA (Mtb BioA [1]; ITC) was 8.6 ± 0.1 10^4 M^−1. For the same compound, the ΔH (Mtb BioA [1]; ITC) was -12.9 ± 0.6 kcal/mol, the “−TΔS” value (Mtb BioA [1]; ITC) was 6.2 ± 0.6 kcal/mol and the ΔG (Mtb BioA [1]; ITC) was -6.7 ± 0.0 kcal/mol. The “LE (ligand efficiency)” value (Mtb BioA [1]) was 0.45.
In the case of `O=C(c1ccccc1)C1CCNCC1` [F7], the KA (Mtb BioA [1]; ITC) was 2.4 ± 0.4 10^4 M^−1, the ΔH (Mtb BioA [1]; ITC) was -4.9 ± 0.2 kcal/mol and the “−TΔS” value (Mtb BioA [1]; ITC) was -1.1 ± 0.2 kcal/mol. For the same compound, the ΔG (Mtb BioA [1]; ITC) was -6.0 ± 0.1 kcal/mol and the “LE (ligand efficiency)” value (Mtb BioA [1]) was 0.43.
In the case of `CC(=O)Nc1ccc2c(c1)C=CC2=O` [F9], the KA (Mtb BioA [1]; ITC) was 4.6 ± 0.3 10^4 M^−1, the ΔH (Mtb BioA [1]; ITC) was -3.3 ± 0.2 kcal/mol and the “−TΔS” value (Mtb BioA [1]; ITC) was -3.0 ± 0.2 kcal/mol. For the same compound, the ΔG (Mtb BioA [1]; ITC) was -6.3 ± 0.0 kcal/mol and the “LE (ligand efficiency)” value (Mtb BioA [1]) was 0.45.
In the case of `NCc1nc2ccccc2s1` [F10], the KA (Mtb BioA [1]; ITC) was 3.3 ± 0.5 10^4 M^−1, the ΔH (Mtb BioA [1]; ITC) was -1.4 ± 0.2 kcal/mol and the “−TΔS” value (Mtb BioA [1]; ITC) was -4.8 ± 0.1 kcal/mol. For the same compound, the ΔG (Mtb BioA [1]; ITC) was -6.1 ± 0.1 kcal/mol and the “LE (ligand efficiency)” value (Mtb BioA [1]) was 0.55.
